{"source": "patent US9034403B2", "about": "“Yeast extract containing γ-Glu-X or γ-Glu-X-Gly and a method for producing the same” (AJINOMOTO CO., INC., priority 2010, dated 2015)", "key": {"[1]": {"tested_on": "Saccharomyces cerevisiae S288C strain", "test": "Addition of Val-Gly to the S288C strain in SDP medium, γ-Glu-Val-Gly in dry cells", "type": "cell-based", "conditions": "Val-Gly 100 ppm added to SDP medium in advance, culture 24 hours", "method": "One loop of the S288C strain was inoculated into SDP medium (ammonium sulfate used for the preparation of the SD medium was replaced with proline, final concentration of proline was 0.1 g/L, 50 ml in a 500 ml-volume Sakaguchi flask), and cultured at 30° C. for 24 hours with shaking at a velocity of 120 rpm. Absorbance of the resulting culture broth was measured, the culture broth was inoculated into SDP medium (400 ml in a 2 L-volume conical flask with baffle fins, two or more flasks) so that OD660 was 0.01 at the start of the culture, and culture was performed at 30° C. for 24 hours with shaking by rotation at a velocity of 120 rpm. To the SDP medium, Val-Gly (purchased from Bachem) was added in advance to a final concentration of 100 ppm. Using the culture broth, the amount of γ-Glu-Val-Gly in dry cells was calculated in the same manner as that of Example 2."}, "[2]": {"tested_on": "S288C, S288C PADH1-HGT1, S288C PADH1-PTR2", "test": "γ-Glu-Val-Gly producing ability from Val-Gly of Hgt1p or Ptr2p overproducing strains", "type": "cell-based, Saccharomyces cerevisiae", "conditions": "100 ppm Val-Gly in SD medium, 20 hours", "method": "S288C PADH1-HGT1, Hgt1p overproducing strain obtained in Example 12, S288C PADH1-PTR2, Ptr2p overproducing strain obtained in Example 12, and their parental strain S288C were evaluated for their γ-Glu-Val-Gly producing abilities from Val-Gly. Each strain was cultivated in 50-ml tubes containing 10 ml of SD medium with 100 ppm Val-Gly as a final concentration. Tubes were inoculated by overnight culture of corresponding strain at initial OD600=0.01, and placed in rotation shaker at 240 rpm, 30° C. Cultivation time was for 20 hours. Then, cells from 2 ml of broth culture were harvested by centrifugation, and washed with 1 ml of milliQ water three times. Then, washed cells were suspended in 1 ml of milliQ and incubated at 70° C. for 10 min with a water bath to extract intracellular materials. After cell debris and the extract were separated by centrifugation, the aqueous phase was transferred to a clean vial and then the vial was vacuum-dried. Thus, the dried extract was prepared. Then γ-Glu-Val-Gly in the dried extract was measured with LC-MS/MS analysis as described in Example 12."}}, "note": "Peptide text beside a SMILES is read from it.", "data": [{"smiles": "CC(C)[C@H](N)C(=O)NCC(=O)O", "note": "[Val-Gly] (H-Val-Gly-OH)", "values": [{"measurement": "γ-Glu-Val-Gly in dry cells", "setting": "[1]", "value": 2, "unit": "ppm"}, {"measurement": "γ-Glu-Val-Gly in the dried extract", "setting": "[2]; strain S288C PADH1-HGT1", "value": 0.03, "unit": "μg 1^−1 OD600^−1"}, {"measurement": "γ-Glu-Val-Gly in the dried extract", "setting": "[2]; strain S288C PADH1-PTR2", "value": 8.89, "unit": "μg 1^−1 OD600^−1"}, {"measurement": "γ-Glu-Val-Gly in the dried extract", "setting": "[2]; strain S288C", "value": 0.04, "unit": "μg 1^−1 OD600^−1"}]}]}
